Assay results from patent US6737383B1, “Herbicidal oxadiazolidines” (priority 1999, dated 2004).

Columns and labels:
[1] = system: Spanishneedles; assay: Test D Spanishneedles; format: in vivo, Bidens bipinnata; conditions: Preemergence, 0 to 100 scale, 0 no injury, 100 complete control
In short: (§1)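 Visual injury ratings, 0 = no injury to 100 = complete control, taken 14 to 21 days after treatment. Test chemicals were in a surfactant-containing non-phytotoxic solvent; preemergence treatments went onto the sandy loam surface of seeded greenhouse pots within one day of sowing.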

[2] = system: goosegrass; assay: Test D goosegrass; format: in vivo, Eleusine indica; conditions: Preemergence, 0 to 100 scale, 0 no injury, 100 complete control
Source text: (§2) Seeds, tubers, or plant parts of Alexandergrass (Brachiaria plantaginea), bermuda-grass (Cynodon dactylon), common pursiane (Portulaca oleracea), common ragweed (Ambrosia elatior), common groundsel (Senecio vulgaris), dallisgrass (Paspalum dilatatum), goosegrass (Eleusine indica), guineagrass (Panicum maximum), itchgrass (Rottboellia exaltata), Johnson grass (Sorghum halepense), large crabgrass (Digitaria sanguinalis), pitted morningglory (Ipomoea lacunosa), purple nutsedge (Cyperus rotundus), sandbur (Cenchrus echinatus), sourgrass (Trichachne insularis), Spanishneedles (Bidens bipinnata), surinam grass (Brachiaria decumbens) and tall mallow (Malva sylvestris) were planted into greenhouse pots of flats containing greenhouse planting medium. Plant species were grown in separate pots or individual compartments. Preemergence applications were made within one day of planting the seed or plant part.
(§3) Test chemicals were formulated in a non-phytotoxic solvent mixture which included a surfactant and applied preemergence to the surface of the pot containing seeds in a sandy loam soil. Untreated control pots and treated pots were placed in the greenhouse for growth and visually evaluated for injury 14 to 21 days after herbicide application. Plant response ratings, summarized in Table C, are based on a 0 to 100 scale where 0 is no injury and 100 is complete control. A dash (−) response means no test result.

[3] = system: Johnson grass; assay: Test D Johnson grass; format: in vivo, Sorghum halepense; conditions: Preemergence, 0 to 100 scale, 0 no injury, 100 complete control
Source text: as §2, §3

[4] = system: Alexandergrass; assay: Test D Alexandergrass; format: in vivo, Brachiaria plantaginea; conditions: Preemergence, 0 to 100 scale, 0 no injury, 100 complete control
In short: as §1

[5] = system: surinam grass; assay: Test D surinam grass; format: in vivo, Brachiaria decumbens; conditions: Preemergence, 0 to 100 scale, 0 no injury, 100 complete control
In short: as §1

[6] = system: pitted morningglory; assay: Test D pitted morningglory; format: in vivo, Ipomoea lacunosa; conditions: Preemergence, 0 to 100 scale, 0 no injury, 100 complete control
In short: as §1

[7] = system: common groundsel; assay: Test D common groundsel; format: in vivo, Senecio vulgaris; conditions: Preemergence, 0 to 100 scale, 0 no injury, 100 complete control
Source text: as §2, §3

[8] = system: purple nutsedge; assay: Test D purple nutsedge; format: in vivo, Cyperus rotundus; conditions: Preemergence, 0 to 100 scale, 0 no injury, 100 complete control
In short: as §1

[9] = system: tall mallow; assay: Test D tall mallow; format: in vivo, Malva sylvestris; conditions: Preemergence, 0 to 100 scale, 0 no injury, 100 complete control
In short: as §1

[10] = system: guineagrass; assay: Test D guineagrass; format: in vivo, Panicum maximum; conditions: Preemergence, 0 to 100 scale, 0 no injury, 100 complete control
In short: as §1

[11] = system: bermuda-grass; assay: Test D bermudagrass; format: in vivo, Cynodon dactylon; conditions: Preemergence, 0 to 100 scale, 0 no injury, 100 complete control
In short: as §1

[12] = system: dallisgrass; assay: Test D dallisgrass; format: in vivo, Paspalum dilatatum; conditions: Preemergence, 0 to 100 scale, 0 no injury, 100 complete control
Source text: as §2, §3

[13] = system: large crabgrass; assay: Test D large crabgrass; format: in vivo, Digitaria sanguinalis; conditions: Preemergence, 0 to 100 scale, 0 no injury, 100 complete control
In short: as §1

[14] = system: sandbur; assay: Test D sandbur; format: in vivo, Cenchrus echinatus; conditions: Preemergence, 0 to 100 scale, 0 no injury, 100 complete control
Source text: as §2, §3

[15] = system: Green foxtail; assay: Test D green foxtail; format: in vivo
In short: as §1

[16] = system: itchgrass; assay: Test D itchgrass; format: in vivo, Rottboellia exaltata; conditions: Preemergence, 0 to 100 scale, 0 no injury, 100 complete control
In short: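 Scoring used a 0–100 visual injury scale, with 0 meaning no effect and 100 complete control, assessed 14–21 days after application alongside untreated pots. Preemergence treatments went onto sandy loam surfaces of separately potted seeds within a day of sowing.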

[17] = Rate 64 g/ha, Preemergence; 0 to 100 scale, 0 no injury, 100 complete control
[18] = Rate 125 g/ha, Preemergence; 0 to 100 scale, 0 no injury, 100 complete control

Cc1cccc(C)c1-n1c(=O)on(C(=O)N(c2ccc(F)cc2)C(C)C)c1=O [Compound 18] was tested, and the “Plant response rating, Spanishneedles” value ([1]; Rate 16 g/ha) was 0, the “Plant response rating, Spanishneedles” value ([1]; Rate 32 g/ha) was 0 and the “Spanishneedles plant response rating” value ([1]; Rate 64 g/ha) was 0. The “Spanishneedles plant response rating” value ([1]; Rate 125 g/ha) was 0, the “Plant response rating, Goosegrass” value ([2]; Rate 16 g/ha) was 0 and the “Plant response rating, Goosegrass” value ([2]; Rate 32 g/ha) was 0. The “Plant response rating, Goosegrass” value ([2]; Rate 64 g/ha) was 85, the “Plant response rating, Goosegrass” value ([2]; Rate 125 g/ha) was 85 and the “Plant response rating Johnsongrass” value ([3]; Rate 16 g/ha) was 0. For the same compound, the “Plant response rating Johnsongrass” value ([3]; Rate 32 g/ha) was 0, the “Plant response rating Johnsongrass” value ([3]; Rate 64 g/ha) was 0 and the “Plant response rating Johnsongrass” value ([3]; Rate 125 g/ha) was 0. For the same compound, the “Plant response rating, Alexandergrass” value ([4]; Rate 16 g/ha) was 0, the “Plant response rating, Alexandergrass” value ([4]; Rate 32 g/ha) was 0 and the “Plant response rating, Alexandergrass” value ([4]; Rate 64 g/ha) was 0. The “Plant response rating, Alexandergrass” value ([4]; Rate 125 g/ha) was 30, the “Plant response rating, Surinam grass” value ([5]; Rate 16 g/ha) was 0 and the “Plant response rating, Surinam grass” value ([5]; Rate 32 g/ha) was 0. The “Surinam grass plant response rating” value ([5]; Rate 64 g/ha) was 0, the “Surinam grass plant response rating” value ([5]; Rate 125 g/ha) was 20 and the “Plant response rating, P. morninglory” value ([6]; Rate 16 g/ha) was 0. The “Plant response rating, P. morninglory” value ([6]; Rate 32 g/ha) was 0, the “Plant response rating, P. morninglory” value ([6]; Rate 64 g/ha) was 0 and the “Plant response rating, P. morninglory” value ([6]; Rate 125 g/ha) was 0. For the same compound, the “Plant response rating, Com. groundsel” value ([7]; Rate 16 g/ha) was 0, the “Plant response rating, Com. groundsel” value ([7]; Rate 32 g/ha) was 0 and the “Plant response rating, Com. groundsel” value ([7]; Rate 64 g/ha) was 0. The “Plant response rating, Com. groundsel” value ([7]; Rate 125 g/ha) was 0, the “Plant response rating, Purple nutsedge” value ([8]; Rate 16 g/ha) was 0 and the “Plant response rating, Purple nutsedge” value ([8]; Rate 32 g/ha) was 0. For the same compound, the “Purple nutsedge plant response rating” value ([8]; Rate 64 g/ha) was 0, the “Purple nutsedge plant response rating” value ([8]; Rate 125 g/ha) was 0 and the “Plant response rating, Tall Mallow” value ([9]; Rate 16 g/ha) was 0. For the same compound, the “Plant response rating, Tall Mallow” value ([9]; Rate 32 g/ha) was 0, the “Tall Mallow plant response rating” value ([9]; Rate 64 g/ha) was 0 and the “Tall Mallow plant response rating” value ([9]; Rate 125 g/ha) was 0. For the same compound, the “Plant response rating, Guineagrass” value ([10]; Rate 16 g/ha) was 0, the “Plant response rating, Guineagrass” value ([10]; Rate 32 g/ha) was 0 and the “Plant response rating, Guineagrass” value ([10]; Rate 64 g/ha) was 30. For the same compound, the “Plant response rating, Guineagrass” value ([10]; Rate 125 g/ha) was 65, the “Plant response rating, Bermudagrass” value ([11]; Rate 16 g/ha) was 40 and the “Plant response rating, Bermudagrass” value ([11]; Rate 32 g/ha) was 60. For the same compound, the “Plant response rating, Bermudagrass” value ([11]; Rate 64 g/ha) was 85, the “Plant response rating, Bermudagrass” value ([11]; Rate 125 g/ha) was 100 and the “Plant response rating, Dallisgrass” value ([12]; Rate 16 g/ha) was 0. For the same compound, the “Plant response rating, Dallisgrass” value ([12]; Rate 32 g/ha) was 0, the “Plant response rating, Dallisgrass” value ([12]; Rate 64 g/ha) was 85 and the “Plant response rating, Dallisgrass” value ([12]; Rate 125 g/ha) was 100. For the same compound, the “Plant response rating Large crabgrass” value ([13]; Rate 16 g/ha) was 0, the “Plant response rating Large crabgrass” value ([13]; Rate 32 g/ha) was 0 and the “Plant response rating Large crabgrass” value ([13]; Rate 64 g/ha) was 98. For the same compound, the “Plant response rating Large crabgrass” value ([13]; Rate 125 g/ha) was 100, the “Plant response rating, Sandbur” value ([14]; Rate 16 g/ha) was 0 and the “Plant response rating, Sandbur” value ([14]; Rate 32 g/ha) was 0. For the same compound, the “Sandbur plant response rating” value ([14]; Rate 64 g/ha) was 0, the “Sandbur plant response rating” value ([14]; Rate 125 g/ha) was 0 and the “Plant response rating, Green foxtail” value ([15]; Preemergence; Rate 16 g/ha; 0 to 100 scale, 0 no injury, 100 complete control) was 0. The “Plant response rating, Green foxtail” value ([15]; Preemergence; Rate 32 g/ha; 0 to 100 scale, 0 no injury, 100 complete control) was 0, the “Plant response rating, Green foxtail” value ([15]; Rate 16 g/ha; Preemergence; 0 to 100 scale, 0 no injury, 100 complete control) was 0 and the “Plant response rating, Green foxtail” value ([15]; Rate 32 g/ha; Preemergence; 0 to 100 scale, 0 no injury, 100 complete control) was 0. The “Green foxtail plant response rating” value [15, 17] was 85, the “Plant response rating, Green foxtail” value [15, 17] was 85 and the “Green foxtail plant response rating” value [15, 18] was 85. The “Plant response rating, Green foxtail” value [15, 18] was 85, the “Plant response rating, Itchgrass” value ([16]; Rate 16 g/ha) was 0 and the “Plant response rating, Itchgrass” value ([16]; Rate 32 g/ha) was 0. The “Plant response rating, Itchgrass” value ([16]; Rate 64 g/ha) was 0 and the “Plant response rating, Itchgrass” value ([16]; Rate 125 g/ha) was 0.
